According to US9079901B2, “Fused heterocyclic compounds as ion channel modulators” (Gilead Sciences, Inc., priority 2010, dated 2015):

molecular target: wild-type human cardiac sodium channel, hNav1.5 (late sodium current) in HEK293 cells (Homo sapiens, UniProt Q14524); assay: Late INa screening assay (automated whole-cell patch clamp, PatchXpress); format: cell-based; settings: HEK293, compound at 1 μM; late INa generated with 10 μM Tefluthrin (or 50 nM ATX II); HEK293 hNav1.5; read-out: Late INa 1 μM (percent block of late INa)
Procedure, shortened: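 hNav1.5-expressing HEK293 cells (no β subunits) were recorded by automated whole-cell patch clamp at 24–27 °C with CsF-based internal solution. Late current was induced by 10 μM tefluthrin (or 50 nM ATX II) and evoked by 250 ms steps from −120 to −20 mV at 0.1 Hz. Compounds, typically 10 μM, were applied in three additions over 7–8 min; mean current at 225–250 ms, normalised to 0Na baseline, gave percent block.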

Chain of wild-type human cardiac sodium channel, hNav1.5 (late sodium current) in HEK293 cells (Q14524 whole entry): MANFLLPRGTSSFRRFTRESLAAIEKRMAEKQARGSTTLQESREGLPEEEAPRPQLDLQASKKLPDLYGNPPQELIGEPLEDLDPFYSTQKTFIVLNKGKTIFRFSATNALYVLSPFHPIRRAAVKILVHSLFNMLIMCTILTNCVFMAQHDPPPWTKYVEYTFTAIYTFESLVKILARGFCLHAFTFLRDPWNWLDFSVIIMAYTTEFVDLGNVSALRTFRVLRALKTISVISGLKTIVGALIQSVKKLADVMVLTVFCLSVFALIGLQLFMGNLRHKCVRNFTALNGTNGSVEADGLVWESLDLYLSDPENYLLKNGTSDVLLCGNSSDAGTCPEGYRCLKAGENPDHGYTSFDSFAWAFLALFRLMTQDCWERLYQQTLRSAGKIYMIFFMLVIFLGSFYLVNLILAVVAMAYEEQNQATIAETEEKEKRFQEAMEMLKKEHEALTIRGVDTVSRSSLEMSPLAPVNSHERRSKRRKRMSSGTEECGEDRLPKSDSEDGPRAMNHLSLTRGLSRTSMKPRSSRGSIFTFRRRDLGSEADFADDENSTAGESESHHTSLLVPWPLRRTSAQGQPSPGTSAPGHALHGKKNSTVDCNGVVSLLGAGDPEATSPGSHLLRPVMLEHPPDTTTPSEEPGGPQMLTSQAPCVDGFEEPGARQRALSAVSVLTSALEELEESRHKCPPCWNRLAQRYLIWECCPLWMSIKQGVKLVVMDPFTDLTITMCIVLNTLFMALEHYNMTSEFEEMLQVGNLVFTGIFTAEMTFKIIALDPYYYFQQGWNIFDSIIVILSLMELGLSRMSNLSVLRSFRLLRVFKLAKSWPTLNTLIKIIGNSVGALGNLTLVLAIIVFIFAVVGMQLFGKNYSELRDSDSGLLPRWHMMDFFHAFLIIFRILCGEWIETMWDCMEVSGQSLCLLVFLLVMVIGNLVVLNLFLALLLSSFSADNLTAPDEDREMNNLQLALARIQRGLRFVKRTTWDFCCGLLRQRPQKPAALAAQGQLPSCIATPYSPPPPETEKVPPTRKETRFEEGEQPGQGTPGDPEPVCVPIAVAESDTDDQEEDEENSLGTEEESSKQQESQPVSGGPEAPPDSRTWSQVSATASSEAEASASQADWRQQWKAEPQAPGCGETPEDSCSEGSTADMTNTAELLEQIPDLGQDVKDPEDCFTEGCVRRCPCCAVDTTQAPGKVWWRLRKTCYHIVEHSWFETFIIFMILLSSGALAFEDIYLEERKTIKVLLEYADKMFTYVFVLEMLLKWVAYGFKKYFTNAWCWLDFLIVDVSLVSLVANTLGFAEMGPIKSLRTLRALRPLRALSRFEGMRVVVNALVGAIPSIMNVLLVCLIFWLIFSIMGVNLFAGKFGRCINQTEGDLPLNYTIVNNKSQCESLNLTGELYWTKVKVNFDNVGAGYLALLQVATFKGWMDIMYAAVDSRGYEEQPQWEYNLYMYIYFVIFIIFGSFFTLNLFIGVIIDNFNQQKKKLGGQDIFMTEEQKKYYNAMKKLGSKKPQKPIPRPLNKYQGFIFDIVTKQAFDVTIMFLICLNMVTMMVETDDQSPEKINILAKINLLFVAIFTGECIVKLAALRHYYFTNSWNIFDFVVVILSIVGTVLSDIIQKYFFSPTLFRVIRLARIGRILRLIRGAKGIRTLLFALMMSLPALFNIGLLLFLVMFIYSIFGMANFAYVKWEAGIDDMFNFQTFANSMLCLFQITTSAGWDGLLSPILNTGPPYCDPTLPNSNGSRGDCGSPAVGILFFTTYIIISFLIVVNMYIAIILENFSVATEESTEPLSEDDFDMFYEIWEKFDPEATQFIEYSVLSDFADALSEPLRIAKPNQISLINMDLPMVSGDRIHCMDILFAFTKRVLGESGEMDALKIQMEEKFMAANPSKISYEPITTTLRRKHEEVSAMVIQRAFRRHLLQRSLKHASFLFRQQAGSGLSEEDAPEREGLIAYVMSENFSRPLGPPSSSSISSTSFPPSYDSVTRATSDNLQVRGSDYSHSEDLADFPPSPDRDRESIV

SMILES | inhibition at 1 µM [%]
Cc1nc(Cn2nc3ccc(-c4ccc(C(F)(F)F)cc4)cn3c2=O)oc1C [compound 173, 2-((4,5-dimethyloxazol-2-yl)methyl)-6-(4-(trifluoromethyl)phenyl)-[1,2,4]triazolo[4,3-a]pyridin-3(2H)-one] | 22.2
Cc1nc(Cn2nc3ccc(-c4ccc(OC(F)(F)F)cc4)cn3c2=O)oc1C [compound 22, 2-((4,5-dimethyloxazol-2-yl)methyl)-6-(4-(trifluoromethoxy)phenyl)-[1,2,4]triazolo[4,3-a]pyridin-3(2H)-one] | 29.4
O=c1n(Cc2ncon2)nc2ccc(-c3ccc(OC(F)(F)F)cc3)cn12 [compound 27, 2-((1,2,4-oxadiazol-3-yl)methyl)-6-(4-(trifluoromethoxy)phenyl)-[1,2,4]triazolo[4,3-a]pyridin-3(2H)-one] | 11.2
O=c1n(CCOc2ncc(F)cn2)nc2ccc(-c3ccc(OC(F)(F)F)cc3)cn12 [compound 138, 2-(2-(5-fluoropyrimidin-2-yloxy)ethyl)-6-(4-(trifluoromethoxy)phenyl)-[1,2,4]triazolo[4,3-a]pyridin-3(2H)-one] | 32.4
Cc1coc(Cn2nc3ccc(-c4ccc(OC(F)(F)F)cc4)cn3c2=O)n1 [compound 191, 2-((4-methyloxazol-2-yl)methyl)-6-(4-(trifluoromethoxy)phenyl)-[1,2,4]triazolo[4,3-a]pyridin-3(2H)-one] | 28.9
O=c1n(CCOc2ncccc2C(F)(F)F)nc2ccc(-c3ccc(OC(F)(F)F)cc3)cn12 [compound 47, 6-(4-(trifluoromethoxy)phenyl)-2-(2-(3-(trifluoromethyl)pyridin-2-yloxy)ethyl)-[1,2,4]triazolo[4,3-a]pyridin-3(2H)-one] | 43.6
O=c1n(CC(O)COc2ccc(Cl)cc2)nc2ccc(-c3ccc(OC(F)(F)F)cc3)cn12 (centres unmarked) [compound 38, 2-(3-(4-chlorophenoxy)-2-hydroxypropyl)-6-(4-(trifluoromethoxy)phenyl)-[1,2,4]triazolo[4,3-a]pyridin-3(2H)-one] | 10.8
Cc1ccn(CCn2nc3ccc(-c4ccc(OC(F)(F)F)cc4)cn3c2=O)n1 [compound 42, 2-(2-(3-methyl-1H-pyrazol-1-yl)ethyl)-6-(4-(trifluoromethoxy)phenyl)-[1,2,4]triazolo[4,3-a]pyridin-3(2H)-one] | 18.9
Cc1noc(Cn2nc3ccc(-c4ccc(F)c(F)c4)cn3c2=O)n1 [compound 150, 6-(3,4-difluorophenyl)-2-((3-methyl-1,2,4-oxadiazol-5-yl)methyl)-[1,2,4]triazolo[4,3-a]pyridin-3(2H)-one] | 12.8
O=c1n(CCN2CCC(F)(F)CC2)nc2ccc(-c3ccc(OC(F)(F)F)cc3)cn12 [compound 50, 2-(2-(4,4-difluoropiperidin-1-yl)ethyl)-6-(4-(trifluoromethoxy)phenyl)-[1,2,4]triazolo[4,3-a]pyridin-3(2H)-one] | 14.2
Cc1noc(Cn2nc3ccc(-c4ccc(Oc5ccc(Cl)cc5)cc4)cn3c2=O)n1 [compound 53, 6-(4-(4-chlorophenoxy)phenyl)-2-((3-methyl-1,2,4-oxadiazol-5-yl)methyl)-[1,2,4]triazolo[4,3-a]pyridin-3(2H)-one] | 55.9
O=c1n(CCCc2ccc(F)c(-c3cccnc3)c2)nc2ccc(-c3ccc(OC(F)(F)F)cc3)cn12 [compound 121, 2-(3-(4-fluoro-3-(pyridin-3-yl)phenyl)propyl)-6-(4-(trifluoromethoxy)phenyl)-[1,2,4]triazolo[4,3-a]pyridin-3(2H)-one] | 13.1
O=c1n(Cc2noc(-c3cccc(C(F)(F)F)c3)n2)nc2ccc(-c3ccc(OC(F)(F)F)cc3)cn12 [compound 7, 6-(4-(trifluoromethoxy)phenyl)-2-((5-(3-(trifluoromethyl)phenyl)-1,2,4-oxadiazol-3-yl)methyl)-[1,2,4]triazolo[4,3-a]pyridin-3(2H)-one] | 24.5
O=c1n(Cc2ccc3ccccc3n2)nc2ccc(-c3ccc(OC(F)(F)F)cc3)cn12 [compound 13, 2-(quinolin-2-ylmethyl)-6-(4-(trifluoromethoxy)phenyl)-[1,2,4]triazolo[4,3-a]pyridin-3(2H)-one] | 24.6
Cc1cnc(Cn2nc3ccc(-c4ccc(OC(F)(F)F)cc4)cn3c2=O)o1 [compound 25, 2-((5-methyloxazol-2-yl)methyl)-6-(4-(trifluoromethoxy)phenyl)-[1,2,4]triazolo[4,3-a]pyridin-3(2H)-one] | 30.3
O=c1n(CCOc2nccn3cccc23)nc2ccc(-c3ccc(OC(F)(F)F)cc3)cn12 [compound 135, 2-(2-(pyrrolo[1,2-a]pyrazin-1-yloxy)ethyl)-6-(4-(trifluoromethoxy)phenyl)-[1,2,4]triazolo[4,3-a]pyridin-3(2H)-one] | 41.5

SMILES | inhibition at 1 µM [%]
O=c1n(Cc2noc(COc3ccccn3)n2)nc2ccc(-c3ccc(OC(F)(F)F)cc3)cn12 [compound 175, 2-((5-((pyridin-2-yloxy)methyl)-1,2,4-oxadiazol-3-yl)methyl)-6-(4-(trifluoromethoxy)phenyl)-[1,2,4]triazolo[4,3-a]pyridin-3(2H)-one] | 28.9
O=c1n(CCOc2cccc(Cl)c2)nc2ccc(-c3ccc(OC(F)(F)F)cc3)cn12 [compound 54, 2-(2-(3-chlorophenoxy)ethyl)-6-(4-(trifluoromethoxy)phenyl)-[1,2,4]triazolo[4,3-a]pyridin-3(2H)-one] | 20.2
O=c1n(CCCc2ccc(F)c(Br)c2)nc2ccc(-c3ccc(OC(F)(F)F)cc3)cn12 [compound 64, 2-(3-(3-bromo-4-fluorophenyl)propyl)-6-(4-(trifluoromethoxy)phenyl)-[1,2,4]triazolo[4,3-a]pyridin-3(2H)-one] | 16.7
Cc1noc(Cn2nc3ccc(-c4ccc(OC(F)(F)F)cc4C)cn3c2=O)n1 [compound 87, 2-((3-methyl-1,2,4-oxadiazol-5-yl)methyl)-6-(2-methyl-4-(trifluoromethoxy)phenyl)-[1,2,4]triazolo[4,3-a]pyridin-3(2H)-one] | 21.3
N#Cc1ccccc1OCC(O)Cn1nc2ccc(-c3ccc(OC(F)(F)F)cc3)cn2c1=O (centres unmarked) [compound 101, 2-(2-hydroxy-3-(3-oxo-6-(4-(trifluoromethoxy)phenyl)-[1,2,4]triazolo[4,3-a]pyridin-2(3H)-yl)propoxy)benzonitrile] | 11.7
O=c1n(CCn2cc(Cl)cn2)nc2ccc(-c3ccc(OC(F)(F)F)cc3)cn12 [compound 41, 2-(2-(4-chloro-1H-pyrazol-1-yl)ethyl)-6-(4-(trifluoromethoxy)phenyl)-[1,2,4]triazolo[4,3-a]pyridin-3(2H)-one] | 12.2
O=c1n(CCn2cnc(-c3ccccc3)c2)nc2ccc(-c3ccc(OC(F)(F)F)cc3)cn12 [compound 45, 2-(2-(4-phenyl-1H-imidazol-1-yl)ethyl)-6-(4-(trifluoromethoxy)phenyl)-[1,2,4]triazolo[4,3-a]pyridin-3(2H)-one] | 11.8
CC1(C)OC[C@@H](c2nc(Cn3nc4ccc(-c5ccc(OC(F)(F)F)cc5)cn4c3=O)no2)O1 [compound 152, (S)-2-((5-(2,2-dimethyl-1,3-dioxolan-4-yl)-1,2,4-oxadiazol-3-yl)methyl)-6-(4-(trifluoromethoxy)phenyl)-[1,2,4]triazolo[4,3-a]pyridin-3(2H)-one] | 10.7
Cc1cnc(Cn2nc3ccc(-c4ccc(Cl)cc4)cn3c2=O)o1 [compound 195, 6-(4-chlorophenyl)-2-((5-methyloxazol-2-yl)methyl)-[1,2,4]triazolo[4,3-a]pyridin-3(2H)-one] | 31.2
O=c1n(CC(F)(F)F)nc2ccc(-c3ccc(OC(F)(F)F)cc3)cn12 [compound 189, 2-(2,2,2-trifluoroethyl)-6-(4-(trifluoromethoxy)phenyl)-[1,2,4]triazolo[4,3-a]pyridin-3(2H)-one] | 15.3
Cc1cc(C)nc(OCCn2nc3ccc(-c4ccc(OC(F)(F)F)cc4)cn3c2=O)n1 [compound 88, 2-(2-(4,6-dimethylpyrimidin-2-yloxy)ethyl)-6-(4-(trifluoromethoxy)phenyl)-[1,2,4]triazolo[4,3-a]pyridin-3(2H)-one] | 20.8
O=c1n(CCOc2ncccn2)nc2ccc(-c3ccc(Oc4ccc(F)cc4)cc3)cn12 [compound 122, 6-(4-(4-fluorophenoxy)phenyl)-2-(2-(pyrimidin-2-yloxy)ethyl)-[1,2,4]triazolo[4,3-a]pyridin-3(2H)-one] | 58.5
Cc1noc(Cn2nc3ccc(-c4cc(F)c(Oc5ccccc5)c(F)c4)cn3c2=O)n1 [compound 127, 6-(3,5-difluoro-4-phenoxyphenyl)-2-((3-methyl-1,2,4-oxadiazol-5-yl)methyl)-[1,2,4]triazolo[4,3-a]pyridin-3(2H)-one] | 21.5
Cc1noc(Cn2nc3ccc(-c4ccc(OC(F)(F)F)cc4)c(C)n3c2=O)n1 [compound 188, 5-methyl-2-((3-methyl-1,2,4-oxadiazol-5-yl)methyl)-6-(4-(trifluoromethoxy)phenyl)-[1,2,4]triazolo[4,3-a]pyridin-3(2H)-one] | 17.3
COc1nc(OCCn2nc3ccc(-c4ccc(OC(F)(F)F)cc4)cn3c2=O)ncc1Cl [compound 130, 2-(2-(5-chloro-4-methoxypyrimidin-2-yloxy)ethyl)-6-(4-(trifluoromethoxy)phenyl)-[1,2,4]triazolo[4,3-a]pyridin-3(2H)-one] | 32.4
O=c1n(CCc2cnccn2)nc2ccc(-c3ccc(OC(F)(F)F)cc3)cn12 [compound 114, 2-(2-(pyrazin-2-yl)ethyl)-6-(4-(trifluoromethoxy)phenyl)-[1,2,4]triazolo[4,3-a]pyridin-3(2H)-one] | 14.4
